From ChEMBL document CHEMBL1158751, “Isoneocryptolepine, a synthetic indoloquinoline alkaloid, as an antiplasmodial lead compound” (J Nat Prod, 2005)
Structures can show the parent of a compound that is named as a salt. Values belong to the molecule of their own block, whether it stands above or below them.

Columns and labels:
Mus musculus = experiment: Toxicity in Plasmodium berghei ANKA S infected NMRI mice (Mus musculus) assessed as death at 50 mg/kg, intraperitoneally twice a day after day 1 post-infection; format: organism-based; design: dose 50 mg/kg, route intraperitoneal; conditions: in vivo, ip
[1] = system: Trypanosoma brucei rhodesiense; experiment: Antitrypanosomal activity against Trypanosoma brucei rhodesiense; format: functional, organism-based
Trypanosoma cruzi = experiment: Antitrypanosomal activity against Trypanosoma cruzi; format: functional, organism-based
Leishmania donovani = experiment: Antileishmanial activity against Leishmania donovani; format: functional, organism-based
L6 = experiment: Cytotoxicity against rat L6 cells; format: cell-based
[2] = Selectivity index, IC50 for rat L6 cells to IC50 for chloroquine and pyrimethamine-resistant Plasmodium falciparum K1; format: functional
Plasmodium berghei = experiment: Antiplasmodial activity against Plasmodium berghei ANKA S infected NMRI mice (Mus musculus) as reduced parasitaemia at 50 mg/kg subcutaneous dose for 4 days; format: functional; design: scale not given: the % may be the effect or the level left
Plasmodium falciparum = experiment: microbe, parasite or virus in culture; conditions: K1, 3 h
[3] = Displacement of methyl green dye from DNA

SMILES: Cn1c2ccccc2c2c[n+](C)c3ccccc3c21.[I-]
- Activity (Mus musculus): Toxic
- IC50 [1]: 0.37 µM
- IC50 (Trypanosoma cruzi): 236 µM
- IC50 (Leishmania donovani): 1.15 µM
- IC50 (L6): 12.7 µM
- Ratio IC50 [2]: >700
- Activity (Plasmodium berghei): 38.9%
- IC50 (Plasmodium falciparum): 0.017 µM

- IC50 [1]: 96.4 µM
- IC50 (Trypanosoma cruzi): 84.4 µM
- IC50 (Leishmania donovani): > 65 µM
SMILES: Cn1c2c3ccccc3nc-2c(-n2c3ccccc3c3nc4ccccc4cc32)c2ccccc21
- IC50 (L6): 165 µM

SMILES: C[C@@H]1CC[C@H]2[C@@H](C)C(=O)O[C@@H]3O[C@@]4(C)CC[C@@H]1[C@]32OO4 [ARTEMISININ]
- IC50 (Plasmodium falciparum): 0.042 µg/mL

SMILES: O=C(Cn1ccnc1[N+](=O)[O-])NCc1ccccc1 [BENZNIDAZOLE]
- IC50 (Trypanosoma cruzi): 1.5 µg/mL

SMILES: Cn1c2c3ccccc3nc-2c(-c2c3nc4ccccc4c-3n(C)c3ccccc23)c2ccccc21 [BISCRYPTOLEPINE]
- IC50 [1]: 2.57 µM
- IC50 (Trypanosoma cruzi): 3.48 µM
- IC50 (Leishmania donovani): 8.93 µM
- IC50 (L6): 13.6 µM
- IC50 (Plasmodium falciparum): 0.27 µM

SMILES: CCN(CC)CCCC(C)Nc1ccnc2cc(Cl)ccc12 (centres undefined) [CHLOROQUINE]
- Activity (Plasmodium berghei): 99.9%

- IC50 [3]: 65 µM
SMILES: C[n+]1c2ccccc2cc2[n-]c3ccccc3c21 [CRYPTOLEPINE HYDROCHLORIDE]
- IC50 (L6): 1.12 µM

- IC50 [3]: 119 µM
SMILES: Cn1cc2c3ccccc3nc-2c2ccccc21 [ISOCRYPTOLEPINE HYDROCHLORIDE]
- IC50 (L6): 1.19 µM

SMILES: C[n+]1cc2[nH]c3ccccc3c2c2ccccc21.[Cl-] [ISONEOCRYPTOLEPINE HYDROCHLORIDE]
- IC50 [3]: 124 µM
- IC50 (L6): 4.32 µM
- Ratio IC50 [2]: 20
- Activity (Plasmodium berghei): 10.3%

SMILES: Nc1nc(N)nc(Nc2ccc([As]3SCC(CO)S3)cc2)n1 (centres undefined) [MELARSOPROL]
- IC50 [1]: 0.0038 µg/mL

- IC50 (Leishmania donovani): 0.56 µg/mL
SMILES: CCCCCCCCCCCCCCCCOP(=O)([O-])OCC[N+](C)(C)C [MILTEFOSINE]

- IC50 [3]: 93 µM
SMILES: Cn1c2nc3ccccc3c-2cc2ccccc21 [NEOCRYPTOLEPINE HYDROCHLORIDE]
- IC50 (L6): 3.24 µM

SMILES: COc1cc([C@@H]2c3cc4c(cc3[C@H](O)[C@H]3COC(=O)[C@H]23)OCO4)cc(OC)c1OC [PODOFILOX]
- IC50 (L6): 0.018 µg/mL

- IC50 [3]: > 360 µM
SMILES: C=C[C@H]1CN2CC[C@H]1C[C@H]2[C@H](O)c1ccnc2ccc(OC)cc12 [QUININE]
